Converted amounts (≈) assume the structure as drawn.
Assays:
[1] = biological target: T1, Escherichia coli LpxC enzyme (Escherichia coli, UniProt P0A725); assay: Inhibitory activity on Escherichia coli LpxC enzyme (fluorescamine method); type: biochemical; conditions: fluorescamine detection; 3.1 nmol/L enzyme, 20 μmol/L substrate, pH 6.5, 120 min; read-out: IC50 (inhibitory activity on Escherichia coli LpxC enzyme, Fluoresamine method)
T1 construct: made in house; host or cells: Escherichia coli
T1 sequence (P0A725 1-305): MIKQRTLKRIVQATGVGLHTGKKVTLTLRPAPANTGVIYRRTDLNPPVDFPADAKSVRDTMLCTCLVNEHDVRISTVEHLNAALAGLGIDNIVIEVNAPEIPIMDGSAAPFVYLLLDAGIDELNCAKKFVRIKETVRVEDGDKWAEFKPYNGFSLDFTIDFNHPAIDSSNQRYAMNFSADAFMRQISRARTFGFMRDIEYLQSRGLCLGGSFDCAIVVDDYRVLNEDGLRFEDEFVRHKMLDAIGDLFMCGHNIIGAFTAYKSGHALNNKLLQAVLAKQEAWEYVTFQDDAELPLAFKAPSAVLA
Procedure, shortened: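 LpxC reacted with UDP-3-O-(R-3-hydroxymyristoyl)-N-acetylglucosamine; product amine quantified after fluorescamine stop and pH 8.0 phosphate buffer addition, at 390 nm/495 nm. Inhibition curve built from a range of test compound concentrations.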

[2] = biological target: T2, Pseudomonas aeruginosa LpxC enzyme (Pseudomonas aeruginosa, UniProt P47205); assay: Inhibitory activity on Pseudomonas aeruginosa LpxC enzyme (fluorescamine method); type: biochemical; conditions: fluorescamine detection; 3.6 nmol/L enzyme, 20 μmol/L substrate, pH 8.0, 60 min
T2 construct: made in house; host or cells: Escherichia coli
T2 sequence (P47205 1-303): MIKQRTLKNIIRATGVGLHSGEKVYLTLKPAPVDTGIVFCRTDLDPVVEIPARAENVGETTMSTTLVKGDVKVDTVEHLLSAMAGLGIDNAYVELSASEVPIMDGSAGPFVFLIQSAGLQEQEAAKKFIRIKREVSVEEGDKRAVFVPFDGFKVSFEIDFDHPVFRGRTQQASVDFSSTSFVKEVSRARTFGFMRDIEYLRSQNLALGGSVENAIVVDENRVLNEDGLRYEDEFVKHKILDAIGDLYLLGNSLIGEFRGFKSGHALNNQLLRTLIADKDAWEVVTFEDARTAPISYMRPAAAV
Text: Test Example 1 Evaluation of the Inhibitory Activity on Pseudomonas aeruginosa LpxC Enzyme (Fluoresamine Method)
To assay the activity of Pseudomonas aeruginosa LpxC enzyme, LpxC was reacted with its substrate, UDP-3-O-(R-3-hydroxydecanoyl)-N-acetylglucosamine, and the amount of the reaction product was quantified by the amino groups present in the product.
Specifically, to 3.6 nmol/L Pseudomonas aeruginosa LpxC enzyme (as acquired by preparing chromosomal DNA from Pseudomonas aeruginosa, obtaining the Pseudomonas aeruginosa LpxC genes by PCR (polymerase chain reaction) using LpxC specific primer, and incorporating the genes into a vector, followed by expression using Escherichia coli), 20 μmol/L UDP-3-O-(R-3-hydroxydecanoyl)-N-acetylglucosamine (Carbosynth) was added, and the mixture was incubated at room temperature for 60 minutes. This reaction was performed in a 40 mmol/L-HEPES buffer solution (pH 8.0) containing 0.02% Brij 35 and 25 nmol/L-zinc chloride. The reaction was terminated by the addition of 1.0 mg/mL-fluorescamine dissolved in a solvent obtained by mixing an equal amount of acetonitrile and dimethylformamide with the reaction mixture, and then, a 0.2 mol/L-sodium phosphate buffer solution (pH 8.0) was added thereto, and the amount of the reaction product was detected at an excitation wavelength/fluorescence wavelength=390 nm/495 nm. An inhibition curve was obtained by performing the aforementioned reaction in the presence of various concentrations of test compounds. From this inhibition curve, the concentration of test compound at which the amount of the reaction product was suppressed by 50% (IC50 value) was determined, which was used as an index for the inhibitory activity on Pseudomonas aeruginosa LpxC enzyme.

[3] = tested on: Klebsiella pneumoniae strain ATCC13883; assay: Antimicrobial activity, MIC by broth microdilution; type: cell-based; conditions: ATCC13883, cation-adjusted Mueller-Hinton broth, about 5×10^5 CFU/mL, 35° C., about 18 hours, read-out: MIC Klebsiella pneumoniae ATCC13883
Procedure, shortened: (§1)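 CLSI-based broth microdilution in cation-adjusted Mueller-Hinton broth, inoculum about 5×10^5 CFU/mL from overnight heart infusion agar culture. Incubation 35° C. about 18 h; MIC is the lowest concentration with no visible growth.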

[4] = tested on: Escherichia coli strain ATCC25922; assay: Antimicrobial activity, MIC by broth microdilution; type: cell-based; conditions: ATCC25922, 18 h, cation-adjusted Mueller-Hinton broth, about 5×10^5 CFU/mL, 35° C., about 18 hours, read-out: MIC Escherichia coli ATCC25922
Procedure, shortened: as §1

[5] = tested on: Pseudomonas aeruginosa strain ATCC27853; assay: Antimicrobial activity, MIC by broth microdilution; type: cell-based; conditions: ATCC27853, 18 h, cation-adjusted Mueller-Hinton broth, about 5×10^5 CFU/mL, 35° C., about 18 hours, read-out: MIC Pseudomonas aeruginosa ATCC27853
Procedure, shortened: as §1

[6] = biological target: T1, Escherichia coli LpxC enzyme; assay: Inhibitory activity on Escherichia coli LpxC enzyme (LCMS method); type: biochemical
Text: Test Example 3 Evaluation of the Inhibitory Activity on Escherichia coli LpxC Enzyme (LCMS Method)
To assay the activity of Escherichia coli LpxC enzyme, LpxC was reacted with its substrate, UDP-3-O-(R-3-hydroxymyristoyl)-N-acetylglucosamine, and the amount of the reaction product was quantified by liquid chromatography tandem mass spectrometry.
Specifically, to 3.1 nmol/L Escherichia coli LpxC enzyme (as acquired by preparing chromosomal DNA from Escherichia coli, obtaining the Escherichia coli LpxC genes by PCR (polymerase chain reaction) using LpxC specific primer, and incorporating the genes into a vector, followed by expression using Escherichia coli), 20 μmol/L UDP-3-O-(R-3-hydroxymyristoyl)-N-acetylglucosamine (Alberta) was added, and the mixture was incubated at room temperature for 120 minutes. This reaction was performed in a 40 mmol/L-2-morpholinoethanesulfonic acid buffer solution (pH 6.5) containing 0.02% Brij 35, 25 nmol/L-zinc chloride, and 80 μmol/L-dithiothreitol. The reaction was terminated by the addition of acetonitrile containing 25 μmol/L-UDP-N-acetylglucosamine as an internal standard to the reaction mixture. Centrifugation was performed and the amount of the substrate and the reaction product in the supernatant was detected by liquid chromatography tandem mass spectrometry. An inhibition curve was obtained by performing the aforementioned reaction in the presence of various concentrations of test compounds. From this inhibition curve, the concentration of test compound at which the amount of the reaction product was suppressed by 50% (IC50 value) was determined, which was used as an index for the inhibitory activity on Escherichia coli LpxC enzyme.

[7] = LC-MS/MS detection, 3.1 nmol/L enzyme, 20 μmol/L substrate, pH 6.5, 120 min, read-out: IC50 (inhibitory activity on Escherichia coli LpxC enzyme, LCMS method)

SMILES | IC50 [1] [nM] | IC50 [2] [nM] | MIC [3] [µg/mL] | MIC [4] [µg/mL] | MIC [5] [µg/mL] | IC50 [6, 7] [nM] | IC50 [6] [nM]
C[C@H](O)c1nccn1Cc1cc(-c2ccc(C#C[C@@H]3[C@H]4CN(CCO)C[C@@H]34)cc2)on1 [Compound 19, (1S)-1-(1-{[5-(4-{[(1R,5S,6s)-3-(2-Hydroxyethyl)-3-azabicyclo[3.1.0]hexan-6-yl]ethynyl}phenyl)-1,2-oxazol-3-yl]methyl}-1H-imidazol-2-yl)ethan-1-ol] | 123 | 2.03 | 1 (≈ 2.39 µM) | 0.5 (≈ 1.19 µM) | 8 (≈ 19.1 µM) |  | 
C[C@H](O)c1nccn1[C@H](CN)c1cc(-c2ccc(C#CC34CC(N)(C3)C4)cc2)on1 [Compound 20, (1S)-1-{1-[(1R)-2-amino-1-(5-{4-[(3-aminobicyclo[1.1.1]pentan-1-yl)ethynyl]phenyl}-1,2-oxazol-3-yl)ethyl]-1H-imidazol-2-yl}ethan-1-ol] |  |  | 2 (≈ 4.96 µM) | 0.5 (≈ 1.24 µM) | 4 (≈ 9.91 µM) | 279 | 
C[C@H](O)c1nccn1[C@H](CN)c1cc(-c2ccc(C#CC3(N)CC3)cc2)on1 [Compound 21, (1S)-1-{1-[(1R)-2-amino-1-(5-(4-[(1-aminocyclopropyl)ethynyl]phenyl}-1,2-oxazol-3-yl)ethyl]-1H-imidazol-2-yl}ethan-1-ol] |  |  | 8 (≈ 21.2 µM) | 2 (≈ 5.3 µM) | 32 (≈ 84.8 µM) | 282 | 
C[C@H](O)c1nccn1[C@H](CN)c1cc(-c2ccc(C#C[C@@H]3[C@H]4CN(CCO)C[C@@H]34)cc2)on1 [Compound 22, (1S)-1-(1-{(1R)-2-Amino-1-[5-(4-{[(1R,5S,6s)-3-(2-hydroxyethyl)-3-azabicyclo[3.1.0]hexan-6-yl]ethynyl}phenyl)-1,2-oxazol-3-yl]ethyl}-1H-imidazol-2-yl)ethan-1-ol] |  |  | 4 (≈ 8.94 µM) | 2 (≈ 4.47 µM) | 2 (≈ 4.47 µM) | 655 | 
C[C@H](O)c1nccn1Cc1cc(-c2ccc(C#CC3CC(N)(C#N)C3)cc2)on1 (stereo partly drawn) [Compound 24, 1-Amino-3-({4-[3-({2-[(1S)-1-hydroxyethyl]-1H-imidazol-1-yl}methyl)-1,2-oxazol-5-yl]phenyl}ethynyl)cyclobutane-1-carbonitrile] |  |  | 4 (≈ 10.3 µM) | 2 (≈ 5.16 µM) | 128 (≈ 330 µM) | < 37 | 
C[C@H](O)c1nccn1Cc1cc(-c2ccc(C#CC3CC(N)(C(N)=O)C3)cc2)on1 (stereo partly drawn) [Compound 25, 1-Amino-3-({4-[3-({2-[(1S)-1-hydroxyethyl]-1H-imidazol-1-yl}methyl)-1,2-oxazol-5-yl]phenyl}ethynyl)cyclobutane-1-carboxamide] |  |  | 8 (≈ 19.7 µM) | 2 (≈ 4.93 µM) | 32 (≈ 78.9 µM) | 52.2 | 
C[C@H](O)c1nccn1Cc1cc(-c2ccc(C#CC3(N)CC3)cc2)no1 [Compound 27, (1S)-1-{1-[(3-(4-[(1-aminocyclopropyl)ethynyl]phenyl}-1,2-oxazol-5-yl)methyl]-1H-imidazol-2-yl}ethan-1-ol] |  |  | 4 (≈ 11.5 µM) | 1 (≈ 2.87 µM) | > 128 | 193 | 
C[C@H](O)c1nccn1Cc1cc(-c2ccc(C#CC34CC(N)(C3)C4)cc2)no1 [Compound 28, (1S)-1-{1-[(3-(4-[(3-aminobicyclo[1.1.1]pentane-1-yl)ethynyl]phenyl}-1,2-oxazol-5-yl)methyl]-1H-imidazol-2-yl}ethan-1-ol] |  |  | 2 (≈ 5.34 µM) | 0.5 (≈ 1.34 µM) | 64 (≈ 171 µM) | 64.6 | 
C[C@H](O)c1nccn1Cc1cc(-c2ccc(C#CC3(N)CCOCC3)cc2)on1 [Compound 29, (1S)-1-{1-[(5-{4-[(4-aminooxan-4-yl)ethynyl]phenyl}-1,2-oxazol-3-yl)methyl]-1H-imidazol-2-yl}ethan-1-ol] |  |  | 128 (≈ 326 µM) | 64 (≈ 163 µM) | > 128 | > 3000 | 
C[C@H](O)c1nccn1Cc1cc(-c2ccc(C#CC(C)(C)N)cc2)on1 [Compound 33] |  |  | 64 (≈ 183 µM) | 32 (≈ 91.3 µM) | > 128 | > 3000 | 
C[C@H](O)c1nccn1Cc1cc(-c2ccc(C#CC3(N)COC3)cc2)on1 [Compound 40, (1S)-1-{1-[(5-(4-[(3-aminooxetan-3-yl)ethynyl]phenyl}-1,2-oxazol-3-yl)methyl]-1H-imidazol-2-yl}ethan-1-ol] |  |  | 32 (≈ 87.8 µM) | 16 (≈ 43.9 µM) | > 128 | 140 | 
C[C@H](O)c1nccn1Cc1cc(-c2ccc(C#C[C@@H]3[C@H]4CN(C(=O)CCN)C[C@@H]34)cc2)on1 [Compound 61, 3-Amino-1-[(1R,5S,6s)-6-({4-[3-({2-[(1S)-1-hydroxyethyl]-1H-imidazol-1-yl}methyl)-1,2-oxazol-5-yl]phenyl}ethynyl)-3-azabicyclo[3.1.0]hexan-3-yl]propan-1-one] |  |  | 16 (≈ 35.9 µM) | 8 (≈ 18 µM) | 4 (≈ 8.98 µM) | < 37 | 
C[C@H](O)c1nccn1Cc1cc(-c2ccc(C#C[C@@H]3[C@H]4CN(C(=O)CC(C)(C)N)C[C@@H]34)cc2)on1 [Compound 62, 3-amino-1-[(1R,5S,6s)-6-((4-[3-((2-[(1S)-1-hydroxyethyl]-1H-imidazol-1-yl}methyl)-1,2-oxazol-5-yl]phenyl)ethynyl)-3-azabicyclo[3.1.0]hexan-3-yl]-3-methylbutan-1-one] |  |  | 32 (≈ 67.6 µM) | 8 (≈ 16.9 µM) | 8 (≈ 16.9 µM) | < 37 | 
Cc1cnc([C@H](C)O)n1Cc1cc(-c2ccc(C#CC3(N)CC3)cc2)on1 [Compound 64, (1S)-1-{1-[(5-{4-[(1-Aminocyclopropyl)ethynyl]phenyl}-1,2-oxazol-3-yl)methyl]-5-methyl-1H-imidazol-2-yl}ethan-1-ol] |  |  | 4 (≈ 11 µM) | 2 (≈ 5.52 µM) | > 128 |  | 176
